Assay results as given in patent US8575145B2, “Triazolopyridine compounds as PIM kinase inhibitors” (Array BioPharma Inc., priority 2008, dated 2013).
Structures can show the parent of a compound that is named as a salt. Where two headings read alike, the source gives them in different places.

Key:
[1] = test system: C57BL/6J mice, MOG-induced EAE; experiment: MOG(35-55)-induced Experimental Autoimmune Encephalomyelitis; format: in vivo, mouse; details: 200 mg/kg oral gavage twice daily, days 7 through 27; vehicle and untreated 3.0
Protocol: To further determine the effect of compounds of Formula I on an autoimmune disease associated with T cells and cytokines, a MOG-induced experimental autoimmune encephalomyelitis (EAE) experiment was performed. MOG-induced EAE is an animal model of human multiple sclerosis (Brain (2006), 129, 1953-1971).
On Day 0, C57BL/6J mice (Jackson Laboratories #000664, 6-8 weeks of age) were injected subcutaneously with 100 μL of complete Freund's adjuvant (CFA) prepared as a 1:1 emulsion of (a) incomplete Freund's adjuvant (Difco, catalog #263910) containing 8 mg/mL m. tuberculosis H37RA (Difco, catalog #231141) and (b) phosphate buffered saline (PBS) containing 1 mg/mL MOG(35-55) peptide (California Peptide Research Inc). On the day 0 and 2, mice were injected intravenously with 200 ng of pertussis toxin (List Biological Laboratories, catalog #181). On day 7, the mice were randomized into treatment groups which received vehicle (distilled water) or the compound of Example 26 (200 mg/kg) administered by oral gavage twice daily from days 7 through 27.
The mice were scored daily on days 7 through 37 using the following clinical scoring system:
1.5—unsteady gait, mild hind limb ataxia
2.0—partial hind limb paralysis (hind limbs carrying weight)
2.5—partial hind limb paralysis (hind limbs not carrying weight)
3.0—full hind limb paralysis
3.5—full hind limb paralysis and partial front limb paralysis

[2] = molecular target: PIM-1 (Homo sapiens (Human), UniProt P11309); experiment: PIM-1 Enzyme Assay; format: biochemical
Sequence of PIM-1 (P11309 whole entry, species assumed): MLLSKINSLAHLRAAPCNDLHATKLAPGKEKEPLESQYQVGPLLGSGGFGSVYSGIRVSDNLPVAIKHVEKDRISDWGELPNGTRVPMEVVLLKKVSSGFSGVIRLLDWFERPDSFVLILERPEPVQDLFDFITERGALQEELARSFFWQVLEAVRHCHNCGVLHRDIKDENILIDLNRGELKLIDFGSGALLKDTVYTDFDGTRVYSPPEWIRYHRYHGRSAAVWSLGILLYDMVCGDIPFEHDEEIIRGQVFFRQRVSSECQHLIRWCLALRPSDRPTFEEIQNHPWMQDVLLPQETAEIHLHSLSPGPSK
Procedure, shortened: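 Radiometric kinase assay in 20 mM K+MOPS pH 7.4, 10 mM MgCl2, 0.005% Tween-20, 1 mM DTT, 2% DMSO final; 60 min at 22° C, stopped with H3PO4, product captured on P81 filter and counted by scintillation. IC50 from 4-parameter logistic fit of percent of control.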

[3] = test system: MV4-11 (Acute myelogenous leukemia); experiment: Cellular Proliferation Assay, cell line C; format: cell-based; details: Homo sapiens; MV4-11, 72 hours, CelltiterBlue; read-out: Cell Line C antiproliferative IC50
Protocol: (§1) The assay for determination of the antiproliferative activity of multiple Pim inhibitors in the JAK2-driven cell lines was conducted as follows. Cells were plated out to 96-well plates at an initial density of 10,000 cells/well in 95 pt. Compounds were prepared at […] in DMSO by conducting 3-fold serial dilutions to give a 10-point dosing curve having a high dose of 1000 μM. Aliquots (5 μt) of these dilutions were then transferred to the appropriate wells of the 96-well plates containing cells to yield a final DMSO concentration of 0.5%. The cells were then incubated with compound for 72 hours at 37° C., 5% CO2. CelltiterBlue reagent (Promega, Catalog #: G8080) was then added (20 μL/well) and incubated at 37° C., 5% CO2 for 1-8 hours depending on the cell line being analyzed. The plate was then quantified employing a fluorescence plate reader (Model: Gemini [Molecular Devices]; Settings: 560 nm (Ex)/590 nm (Em) 570 nm (cut-off) [CellTiter Blue Assay].
The values for each well were then converted to a percent of untreated control (POC). These POC values were then plotted as a function of compound concentration. A 4-parameter curve-fit analysis was performed for each compound dilution and an IC50 value was calculated from this curve. […]

[4] = test system: CD4+ T cells; experiment: T Cell in vitro Functional Assay (D): IL-22 production; format: cell-based; details: Mus musculus; CD4+ T cells cultured with IL-6/TGFβ, IL-23 stimulation 18 hours, ELISA
Protocol: The in vitro assays to assess the effects of the compounds of Examples 16, 18 and 26 on T cells were conducted as described in assays A, B, C and D below. CD4+ T cells were isolated from red blood cell-depleted splenocytes of C57B1/6J mice (Jackson Laboratories, catalog #000664) using CD4+ T cell isolation kit (Miltenyi, catalog #130-090-860).
In assay (D), 1,000,000 cells/mL of purified CD4+ T cells were mixed with 1 μg/mL anti-CD28, 50 ng/mL IL-6 (R&D Systems cat #406-ML-025/CF), 1 ng/mL TGFβ (R&D Systems cat #303-B2-002), 2 μg/mL anti-IL-4 (R&D Systems cat #AB-404-NA), 2 μg/mL anti-IFNγ (R&D Systems cat #AB-485-NA) and placed into plates coated with 1 μg/mL anti-CD3. After 4 days, cells were harvested, washed and 100,000 cells were plated into 96 well plate. A dilution series of compounds were prepared at 200× the final concentration in DMSO, then 10× stocks were prepared by dilution in cell culture media. 10 μL of 10× stocks were added to the cells in the 96 well plate. After 2 hours, 50 ng IL-23 (R&D Systems catalog #1887-ML-010/CF) was added to each well and 18 hours later supernatants were removed and tested for IL-22 levels by ELISA (R&D Systems catalog #M2200). ELISA plates were quantified relative to a standard curve using Molecular Devices Versamax Reader at […] and Softmax Pro software.
For each of assays A, B, C and D, the values for each well were converted to a percent of vehicle-treated (DMSO) control (POC). These POC values were plotted as a function of compound concentration and an IC50 calculated using a 4-parameter curve-fit analysis program.

[5] = test system: BxPC3 (Pancreatic Cancer); experiment: Cellular Proliferation Assay, cell line D; format: cell-based; details: Homo sapiens, BXPC-3; BxPC3, 72 hours, CelltiterBlue; read-out: Cell Line D antiproliferative IC50
Protocol: as §1
(§2) The values for each well were then converted to a percent of untreated control (POC). These POC values were then plotted as a function of compound concentration. A 4-parameter curve-fit analysis was performed for each compound dilution and an IC50 value was calculated from this curve.
(§3) Cell lines • A: PC3 (Androgen independent prostate cancer) • B: K562 (Ph+chronic myelogenous leukemia) • C: MV4-11 (Acute myelogenous leukemia) • D: BxPC3 (Pancreatic Cancer) • E: HepG2 (Hepatocellular Carcinoma) • F: BaF3 (Mouse pro-B-cell line) • G: BaF3 TEL-JAK2 (Mouse pro-B-cell transformed with TEL-JAK2 fusion) • H: BaF2 BCR-Ab1 (Mouse pro-B-cell transformed with BCR-Ab1 fusion)

[6] = test system: HepG2 (Hepatocellular Carcinoma); experiment: Cellular Proliferation Assay, cell line E; format: cell-based; details: Homo sapiens; HepG2, 72 hours, CelltiterBlue; read-out: Cell Line E antiproliferative IC50
Protocol: as §1, §2, §3

Row | SMILES | median maximal clinical score [1] | IC50 [2] [nM] | IC50 [3] [nM] | IC50 [4] [nM] | IC50 [5] [nM] | IC50 [6] [nM] | IC50 ([2]; 35 μM ATP, 0.25 nM PIM-1) [nM]
1 | F[C@@H]1CNCCC1Oc1cccc2ccc(-c3nnc4ccccn34)nc12 (stereo in doubt) [Example 26, 2-([1,2,4]triazolo[4,3-a]pyridin-3-yl)-8-((cis)-3-fluoropiperidin-4-yloxy)quinoline dihydrochloride] | 1.5 | 3 | < 2000 | ≤ 5000 | – | – | –
2 | c1cc(OCC2CCCNC2)c2nc(-c3nnc4ccccn34)ccc2c1 (stereo not drawn) [Example 16, 2-([1,2,4]Triazolo[4,3-a]pyridin-3-yl)-8-(piperidin-3-ylmethoxy)quinoline] | – | – | – | ≤ 1000 | > 10000 | > 10000 | 1
3 | CC(C)(CN)COc1cccc2ccc(-c3nnc4ccccn34)nc12 [Example 18, 3-(2-([1,2,4]Triazolo[4,3-a]pyridin-3-yl)quinolin-8-yloxy)-2,2-dimethylpropan-1-amine] | – | – | < 2000 | ≤ 1000 | < 10000 | < 10000 | –
